Inconclusive results and toxic doses are left out. No stated cut-off is given here; in the data, active means T/C of 150% or more; inactive means T/C below 125%.
System: L1210 leukemia ip in BDF1 mice, survival T/C
Assay: NCI In Vivo Anticancer Drug Screen. Data for tumor model L1210 Leukemia (intraperitoneal) in B6D2F1 (BDF1) mice
Settings: higher = longer survival
Outline: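 Ratio derived from survival: compound-dosed mice over vehicle-dosed mice, all bearing a transplantable tumor.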

[1] = endpoint: mean survival time, dose: 100.0 mg/kg/injection, schedule: Q01DX009 (ip), vehicle: Klucel (hydroxypropylcellulose) (HPC)
[2] = endpoint: mean survival time, dose: 200.0 mg/kg/injection, schedule: Q01DX009 (ip), vehicle: Klucel (hydroxypropylcellulose) (HPC)
[3] = endpoint: mean survival time, dose: 400.0 mg/kg/injection, schedule: Q01DX009 (ip), vehicle: Klucel (hydroxypropylcellulose) (HPC)

Measured: T/C

CCCc1c(C)[nH]c2ccccc12
inactive: [1] 104 % of control | endpoint: mean survival time, dose: 100.0 mg/kg/injection, schedule: Q04DX003 (ip), vehicle: Klucel (hydroxypropylcellulose) (HPC) 105 % of control | [2] 92 % of control | endpoint: mean survival time, dose: 200.0 mg/kg/injection, schedule: Q04DX003 (ip), vehicle: Klucel (hydroxypropylcellulose) (HPC) 104 % of control | [3] 95 % of control | endpoint: mean survival time, dose: 400.0 mg/kg/injection, schedule: Q04DX003 (ip), vehicle: Klucel (hydroxypropylcellulose) (HPC) 105 % of control

CCCCCNc1ccc(C(=O)O)cc1
inactive: endpoint: mean survival time, dose: 37.5 mg/kg/injection, schedule: Q01DX009 (ip), vehicle: saline 100 % of control | endpoint: mean survival time, dose: 75.0 mg/kg/injection, schedule: Q01DX001 (ip), vehicle: acetone 88 % of control | endpoint: mean survival time, dose: 75.0 mg/kg/injection, schedule: Q01DX009 (ip), vehicle: saline 95 % of control | endpoint: mean survival time, dose: 75.0 mg/kg/injection, schedule: Q04DX003 (ip), vehicle: saline 100 % of control | endpoint: mean survival time, dose: 150.0 mg/kg/injection, schedule: Q01DX001 (ip), vehicle: acetone 96 % of control | endpoint: mean survival time, dose: 150.0 mg/kg/injection, schedule: Q01DX009 (ip), vehicle: saline 92 % of control | endpoint: mean survival time, dose: 150.0 mg/kg/injection, schedule: Q04DX003 (ip), vehicle: saline 97 % of control | endpoint: mean survival time, dose: 300.0 mg/kg/injection, schedule: Q01DX001 (ip), vehicle: acetone 102 % of control | endpoint: mean survival time, dose: 300.0 mg/kg/injection, schedule: Q04DX003 (ip), vehicle: saline 97 % of control

CCCCCNC(=O)CC(O)C(=O)NCCCCC (stereo not given)
inactive: endpoint: mean survival time, dose: 100.0 mg/kg/injection, schedule: Q01DX001 (ip), vehicle: other 87 % of control | endpoint: mean survival time, dose: 200.0 mg/kg/injection, schedule: Q01DX001 (ip), vehicle: other 98 % of control | endpoint: mean survival time, dose: 400.0 mg/kg/injection, schedule: Q01DX001 (ip), vehicle: other 96 % of control

CC(=O)O[C@]1(C(C)=O)CC[C@H]2[C@@H]3C[C@H](C)C4=CC(=O)CC[C@]4(C)[C@H]3CC[C@@]21C
inactive: endpoint: mean survival time, dose: 50.0 mg/kg/injection, schedule: Q01DX009 (ip), vehicle: Klucel (hydroxypropylcellulose) (HPC) 109 % of control | endpoint: mean survival time, dose: 100.0 mg/kg/injection, schedule: Q01DX001 (sc), vehicle: steriod suspending solution 102 % of control | [1] 101 % of control | endpoint: mean survival time, dose: 200.0 mg/kg/injection, schedule: Q01DX001 (sc), vehicle: steriod suspending solution 108 % of control | [2] 103 % of control | endpoint: mean survival time, dose: 200.0 mg/kg/injection, schedule: Q01DX009 (sc), vehicle: steriod suspending solution 91 % of control | endpoint: mean survival time, dose: 400.0 mg/kg/injection, schedule: Q01DX001 (sc), vehicle: steriod suspending solution 102 % of control | [3] 100 % of control | endpoint: mean survival time, dose: 400.0 mg/kg/injection, schedule: Q01DX009 (sc), vehicle: steriod suspending solution 94 % of control | endpoint: mean survival time, dose: 600.0 mg/kg/injection, schedule: Q01DX009 (sc), vehicle: steriod suspending solution 96 % of control | endpoint: mean survival time, dose: 800.0 mg/kg/injection, schedule: Q01DX009 (ip), vehicle: Klucel (hydroxypropylcellulose) (HPC) 104 % of control | endpoint: mean survival time, dose: 800.0 mg/kg/injection, schedule: Q01DX009 (sc), vehicle: steriod suspending solution 91 % of control | endpoint: mean survival time, dose: 1000.0 mg/kg/injection, schedule: Q01DX009 (sc), vehicle: steriod suspending solution 94 % of control | endpoint: median survival time, dose: 16.0 mg/kg/injection, schedule: Q03HX008 (ip), vehicle: Klucel (hydroxypropylcellulose) (HPC) 97 % of control | endpoint: median survival time, dose: 16.0 mg/kg/injection, schedule: Q03HX016 (ip), vehicle: Klucel (hydroxypropylcellulose) (HPC) 94 % of control | endpoint: median survival time, dose: 16.0 mg/kg/injection, schedule: Q03HX024 (ip), vehicle: Klucel (hydroxypropylcellulose) (HPC) 96 % of control | endpoint: median survival time, dose: 32.0 mg/kg/injection, schedule: Q03HX008 (ip), vehicle: Klucel (hydroxypropylcellulose) (HPC) 96 % of control | endpoint: median survival time, dose: 32.0 mg/kg/injection, schedule: Q03HX016 (ip), vehicle: Klucel (hydroxypropylcellulose) (HPC) 94 % of control | endpoint: median survival time, dose: 32.0 mg/kg/injection, schedule: Q03HX024 (ip), vehicle: Klucel (hydroxypropylcellulose) (HPC) 95 % of control | endpoint: median survival time, dose: 64.0 mg/kg/injection, schedule: Q01DX009 (ip), vehicle: Klucel (hydroxypropylcellulose) (HPC) 107 % of control | endpoint: median survival time, dose: 64.0 mg/kg/injection, schedule: Q03HX008 (ip), vehicle: Klucel (hydroxypropylcellulose) (HPC) 93 % of control | endpoint: median survival time, dose: 64.0 mg/kg/injection, schedule: Q03HX016 (ip), vehicle: Klucel (hydroxypropylcellulose) (HPC) 94 % of control | endpoint: median survival time, dose: 64.0 mg/kg/injection, schedule: Q03HX024 (ip), vehicle: Klucel (hydroxypropylcellulose) (HPC) 93 % of control | endpoint: median survival time, dose: 128.0 mg/kg/injection, schedule: Q01DX001 (ip), vehicle: Klucel (hydroxypropylcellulose) (HPC) 100 % of control | endpoint: median survival time, dose: 128.0 mg/kg/injection, schedule: Q01DX009 (ip), vehicle: Klucel (hydroxypropylcellulose) (HPC) 105 % of control | endpoint: median survival time, dose: 128.0 mg/kg/injection, schedule: Q03HX008 (ip), vehicle: Klucel (hydroxypropylcellulose) (HPC) 93 % of control | endpoint: median survival time, dose: 128.0 mg/kg/injection, schedule: Q03HX016 (ip), vehicle: Klucel (hydroxypropylcellulose) (HPC) 93 % of control | endpoint: median survival time, dose: 128.0 mg/kg/injection, schedule: Q04DX003 (ip), vehicle: Klucel (hydroxypropylcellulose) (HPC) 102 % of control | endpoint: median survival time, dose: 128.0 mg/kg/injection, schedule: Q08DX002 (ip), vehicle: Klucel (hydroxypropylcellulose) (HPC) 100 % of control | endpoint: median survival time, dose: 256.0 mg/kg/injection, schedule: Q01DX001 (ip), vehicle: Klucel (hydroxypropylcellulose) (HPC) 96 % of control | endpoint: median survival time, dose: 256.0 mg/kg/injection, schedule: Q01DX009 (ip), vehicle: Klucel (hydroxypropylcellulose) (HPC) 104 % of control | endpoint: median survival time, dose: 256.0 mg/kg/injection, schedule: Q04DX003 (ip), vehicle: Klucel (hydroxypropylcellulose) (HPC) 105 % of control | endpoint: median survival time, dose: 256.0 mg/kg/injection, schedule: Q08DX002 (ip), vehicle: Klucel (hydroxypropylcellulose) (HPC) 108 % of control | endpoint: median survival time, dose: 512.0 mg/kg/injection, schedule: Q01DX001 (ip), vehicle: Klucel (hydroxypropylcellulose) (HPC) 100 % of control | endpoint: median survival time, dose: 512.0 mg/kg/injection, schedule: Q01DX009 (ip), vehicle: Klucel (hydroxypropylcellulose) (HPC) 100 % of control | endpoint: median survival time, dose: 512.0 mg/kg/injection, schedule: Q04DX003 (ip), vehicle: Klucel (hydroxypropylcellulose) (HPC) 98 % of control | endpoint: median survival time, dose: 512.0 mg/kg/injection, schedule: Q08DX002 (ip), vehicle: Klucel (hydroxypropylcellulose) (HPC) 100 % of control | endpoint: median survival time, dose: 1024.0 mg/kg/injection, schedule: Q01DX001 (ip), vehicle: Klucel (hydroxypropylcellulose) (HPC) 102 % of control | endpoint: median survival time, dose: 1024.0 mg/kg/injection, schedule: Q01DX009 (ip), vehicle: Klucel (hydroxypropylcellulose) (HPC) 105 % of control | endpoint: median survival time, dose: 1024.0 mg/kg/injection, schedule: Q04DX003 (ip), vehicle: Klucel (hydroxypropylcellulose) (HPC) 114 % of control | endpoint: median survival time, dose: 1024.0 mg/kg/injection, schedule: Q08DX002 (ip), vehicle: Klucel (hydroxypropylcellulose) (HPC) 97 % of control | endpoint: median survival time, dose: 2048.0 mg/kg/injection, schedule: Q01DX001 (ip), vehicle: Klucel (hydroxypropylcellulose) (HPC) 92 % of control | endpoint: median survival time, dose: 2048.0 mg/kg/injection, schedule: Q08DX002 (ip), vehicle: Klucel (hydroxypropylcellulose) (HPC) 95 % of control

CCN(CC)CCOCC(=O)Nc1c(C)cccc1Cl
inactive: endpoint: mean survival time, dose: 100.0 mg/kg/injection, schedule: Q04DX003 (ip), vehicle: saline sonified 93 % of control | endpoint: mean survival time, dose: 200.0 mg/kg/injection, schedule: Q04DX003 (ip), vehicle: saline sonified 106 % of control

CCSC1OC(C(COC(C)=O)OC(C)=O)C(OC(C)=O)C1NC(C)=O (stereo not given)
inactive: endpoint: mean survival time, dose: 50.0 mg/kg/injection, schedule: Q01DX001 (ip), vehicle: saline 103 % of control | endpoint: mean survival time, dose: 100.0 mg/kg/injection, schedule: Q01DX001 (ip), vehicle: saline 110 % of control | endpoint: mean survival time, dose: 200.0 mg/kg/injection, schedule: Q01DX001 (ip), vehicle: saline 97 % of control | endpoint: mean survival time, dose: 400.0 mg/kg/injection, schedule: Q01DX001 (ip), vehicle: saline 100 % of control

C[N+](C)(C)CC1CCCCC1
inactive: endpoint: mean survival time, dose: 75.0 mg/kg/injection, schedule: Q01DX001 (ip), vehicle: saline 103 % of control

O=C1c2ccccc2C(=O)N1CN1CCC(CCCC2CCN(CN3C(=O)c4ccccc4C3=O)CC2)CC1
inactive: endpoint: mean survival time, dose: 100.0 mg/kg/injection, schedule: Q04DX003 (ip), vehicle: saline with Tween-80 92 % of control

Cc1ccc(NC(=O)Nc2ccccc2Cl)cc1
inactive: endpoint: mean survival time, dose: 100.0 mg/kg/injection, schedule: Q01DX009 (ip), vehicle: gum acacia 86 % of control | endpoint: mean survival time, dose: 100.0 mg/kg/injection, schedule: Q04DX003 (ip), vehicle: gum acacia 89 % of control | endpoint: mean survival time, dose: 200.0 mg/kg/injection, schedule: Q01DX009 (ip), vehicle: gum acacia 94 % of control | endpoint: mean survival time, dose: 200.0 mg/kg/injection, schedule: Q04DX003 (ip), vehicle: gum acacia 89 % of control | endpoint: mean survival time, dose: 400.0 mg/kg/injection, schedule: Q01DX009 (ip), vehicle: gum acacia 94 % of control | endpoint: mean survival time, dose: 400.0 mg/kg/injection, schedule: Q04DX003 (ip), vehicle: gum acacia 98 % of control

— PubChem BioAssay AID248 (DTP/NCI, 2004)
